Assay results published in the supplement of paper PMC10307832.

What was measured:
Assay in all cases: relative viability (nuclei count vs DMSO), 5 days (fraction); higher = more cells survive
QS11 + Olaparib = compound: C1CC2=C(C1)C=C(C=C2)OC3=NC(=C4C(=N3)N(C=N4)CC5=CC=C(C=C5)C6=CC=CC=C6)N[C@@H](CC7=CC=CC=C7)CO [QS11] + O=C(c1cc(Cc2n[nH]c(=O)c3ccccc23)ccc1F)N1CCN(C(=O)C2CC2)CC1 [Olaparib] (partner 8 µM)
How it was run: (§1)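 Five library-drug doses in √10 steps were combined with a fixed anchor-drug dose, or a single drug was given alone, by pin tool to lung cancer cell lines in 1536-well plates the day after seeding. Nuclei were stained and counted after 5 days. Relative viability is the nuclei count in treated wells over that in vehicle wells, taken as the median of duplicate plates.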

QS11 + Tozasertib = compound: C1CC2=C(C1)C=C(C=C2)OC3=NC(=C4C(=N3)N(C=N4)CC5=CC=C(C=C5)C6=CC=CC=C6)N[C@@H](CC7=CC=CC=C7)CO [QS11] + Cc1cc(Nc2cc(N3CCN(C)CC3)nc(Sc3ccc(NC(=O)C4CC4)cc3)n2)n[nH]1 [Tozasertib] (partner 0.1 µM)
How it was run: as §1

AZ628 + Linsitinib = compound: CC1=C(C=C(C=C1)NC(=O)C2=CC(=CC=C2)C(C)(C)C#N)NC3=CC4=C(C=C3)N=CN(C4=O)C [AZ628] + C[C@]1(O)C[C@@H](c2nc(-c3ccc4ccc(-c5ccccc5)nc4c3)c3c(N)nccn32)C1 [Linsitinib] (partner 1 µM)
How it was run: as §1

AZ628 + Phenformin = compound: CC1=C(C=C(C=C1)NC(=O)C2=CC(=CC=C2)C(C)(C)C#N)NC3=CC4=C(C=C3)N=CN(C4=O)C [AZ628] + N=C(N)NC(=N)NCCc1ccccc1 [Phenformin] (partner 250 µM)
How it was run: as §1

Row | Cell Line | relative viability (QS11 + Olaparib; first compound 0.08 µM) | relative viability (QS11 + Olaparib; first compound 0.253 µM) | relative viability (QS11 + Olaparib; first compound 0.8 µM) | relative viability (QS11 + Olaparib; first compound 2.53 µM) | relative viability (QS11 + Olaparib; first compound 8 µM) | relative viability (QS11 + Tozasertib; first compound 0.08 µM) | relative viability (QS11 + Tozasertib; first compound 0.253 µM) | relative viability (QS11 + Tozasertib; first compound 0.8 µM) | relative viability (QS11 + Tozasertib; first compound 2.53 µM) | relative viability (QS11 + Tozasertib; first compound 8 µM) | relative viability (AZ628 + Linsitinib; first compound 0.08 µM) | relative viability (AZ628 + Linsitinib; first compound 0.253 µM) | relative viability (AZ628 + Linsitinib; first compound 0.8 µM) | relative viability (AZ628 + Linsitinib; first compound 2.53 µM) | relative viability (AZ628 + Linsitinib; first compound 8 µM) | relative viability (AZ628 + Phenformin; first compound 0.08 µM) | relative viability (AZ628 + Phenformin; first compound 0.253 µM) | relative viability (AZ628 + Phenformin; first compound 0.8 µM) | relative viability (AZ628 + Phenformin; first compound 2.53 µM) | relative viability (AZ628 + Phenformin; first compound 8 µM)
1 | NCI-H23 | 0.297 | 0.226 | 0.245 | 0.269 | 0.264 | 0.277 | 0.413 | 0.273 | 0.253 | 0.266 | 0.562 | 0.481 | 0.28 | 0.376 | 0.32 | 0.841 | 0.806 | 0.619 | 0.716 | 0.595
2 | NCI-H1755 | 0.856 | 0.876 | 0.665 | 0.767 | 0.648 | 0.617 | 0.555 | 0.454 | 0.515 | 0.411 | 0.993 | 0.956 | 0.941 | 0.937 | 0.883 | 0.614 | 0.626 | 0.585 | 0.589 | 0.46
3 | NCI-H650 | 0.316 | 0.364 | 0.375 | 0.316 | 0.418 | 0.65 | 0.759 | 0.728 | 0.641 | 0.536 | 1.09 | 0.911 | 1.25 | 0.952 | 0.78 | 0.536 | 0.471 | 0.552 | 0.509 | 0.498
4 | NCI-H1437 | 0.661 | 0.635 | 0.673 | 0.625 | 0.541 | 0.44 | 0.45 | 0.398 | 0.344 | 0.304 | 0.966 | 0.846 | 0.958 | 0.779 | 0.848 | 0.369 | 0.266 | 0.262 | 0.331 | 0.318
5 | NCI-H460 | 0.422 | 0.435 | 0.36 | 0.416 | 0.277 | 0.3 | 0.446 | – | 0.0921 | 0.143 | 0.74 | 0.694 | 0.658 | 0.523 | 0.154 | 0.52 | 0.511 | 0.452 | 0.404 | 0.189
6 | HARA | 0.729 | – | 0.473 | 0.919 | 0.803 | 0.0847 | 0.117 | – | 0.0916 | 0.102 | 0.774 | 0.847 | 0.888 | 0.934 | 0.309 | 0.527 | 0.402 | 0.409 | 0.465 | 0.376
7 | NCI-H2085 | 0.741 | 0.846 | 0.773 | 0.785 | 0.976 | 0.803 | 0.77 | 0.479 | 0.531 | 0.467 | 0.851 | 0.939 | 0.972 | 0.879 | 0.781 | 0.83 | 0.662 | 0.784 | 0.636 | 0.583
8 | NCI-H1395 | 0.464 | 0.463 | 0.446 | 0.468 | 0.472 | 0.728 | 0.697 | 0.748 | 0.686 | 0.72 | 1.21 | 1.18 | 1.23 | 1.07 | 1.05 | 0.478 | 0.39 | 0.423 | 0.436 | 0.422
9 | RERF-LC-KJ | 0.988 | 0.975 | 0.885 | 0.822 | 0.593 | 0.521 | 0.429 | 0.42 | 0.274 | 0.274 | 0.799 | 0.874 | 0.841 | 0.855 | 0.7 | 0.432 | 0.424 | 0.392 | 0.401 | 0.31
10 | HCC-78 | 0.665 | 1.02 | 0.83 | 0.859 | 0.806 | 0.404 | 0.57 | 0.401 | 0.462 | 0.449 | 0.704 | 0.524 | 0.479 | 0.499 | 0.518 | 0.814 | 0.631 | 0.767 | 0.705 | 0.726
11 | NCI-H2087 | 0.743 | 0.743 | 0.553 | 0.623 | 0.644 | 0.245 | 0.225 | – | 0.243 | 0.265 | 0.818 | 0.613 | 0.728 | 0.65 | 0.343 | 0.348 | 0.289 | 0.246 | 0.27 | 0.169
12 | SK-LU-1 | 0.354 | 0.442 | 0.466 | 0.356 | 0.452 | 0.293 | 0.323 | 0.352 | 0.312 | 0.278 | 0.728 | 1 | 0.907 | 1.07 | 0.901 | – | 0.433 | 0.488 | 0.348 | 0.253
13 | EMC-BAC-2 | 0.461 | 0.492 | 0.464 | 0.492 | 0.44 | 0.297 | 0.292 | 0.279 | 0.274 | 0.238 | 0.77 | 0.723 | 0.782 | 0.744 | 0.762 | 0.584 | 0.57 | 0.432 | 0.602 | 0.505
14 | A-427 | 0.756 | 0.67 | – | 0.656 | 0.559 | 0.21 | 0.207 | – | 0.209 | 0.201 | 1 | 0.898 | 0.839 | 0.857 | 0.496 | 0.207 | 0.242 | 0.25 | 0.245 | 0.181
15 | NCI-H727 | 0.653 | 0.661 | 0.654 | 0.589 | 0.753 | 0.58 | 0.602 | 0.539 | 0.647 | 0.511 | 0.194 | 0.2 | 0.225 | 0.282 | 0.201 | 0.422 | 0.386 | 0.374 | 0.329 | 0.341
16 | COR-L23 | 0.302 | 0.322 | 0.303 | 0.271 | 0.288 | 0.17 | 0.177 | 0.137 | 0.156 | 0.141 | 1.05 | 0.886 | 0.986 | 0.81 | 0.492 | 0.54 | 0.476 | 0.433 | 0.445 | 0.333
